Several values for one entry are separate records, joined by “and”; a condition that tells them apart may be missing. Identical values can stand only once.
Key:
Assay type in all cases: in vivo, mouse
C57BL/6 mice, CLP sepsis = test: Lung water content, CLP mice; settings: 20 h; for lung water content (wet weight – dry weight)/wet weight (Figure 6K): 10 mg/kg NDI, individual mice
Method: Sepsis was induced in mice by cecal ligation and puncture (CLP) as described previously ([45], [46]). Mice were anesthetized with isoflurane to a surgical plane and placed in a supine position. CLP was performed through a midline laparotomy. The abdomen was shaved and disinfected. Through a 2 cm midline incision, the cecum was exposed and then ligated with a 4-0 silk suture 1 cm proximal from the distal cecal extremity. […] A small amount of cecal content was extruded through both holes, and the ligated cecum was returned to the peritoneal cavity. The wound was closed in layers. […] A small amount of cecal content was extruded. […] Vehicle groups received an equivalent volume of PBS, while treatment groups received NDI 10 mg/kg in […] PBS via retro-orbital injection after CLP. This dose was chosen primarily on the basis of our laboratory’s prior experience, we have consistently used this dose in mouse CLP models with reproducible efficacy and without observable toxicity ([39], [44]). Sham-operated animals underwent a laparotomy without CLP. After closure, the mice received a subcutaneous injection of 0.5 mL of normal saline to overcome surgery-induced dehydration. […] All mice were subcutaneously injected with a single dose of 0.1 mg/kg buprenorphine after CLP. Lung vascular leakage was quantified using the Evans blue dye–labeled (EBD-labeled) albumin extravasation assay ([48]). […] Sigma-Aldrich) via retro-orbital injection. At 1 hour after EBD administration (4.5 hours after the end of resuscitation), the lungs were perfused with heparinized (1 U/mL) normal saline via right ventricle injection to remove intravascular dye. The whole lung was dehydrated for 48 hours at 60°C, immersed in formamide (1 mL/g wet weight; Sigma-Aldrich) at 37°C for 48 hours, and centrifuged at 5,000g for 30 minutes. The amount of extracted EBD in the supernatant was quantified by spectrophotometry. The concentration of extravasated EBD-albumin in lung homogenates was expressed as nanograms EBD per milligram of dry lung tissue. Lung water content was calculated as (wet weight – dry weight)/wet weight %.

ZBP1 = ZBP1 protein in lungs of CLP mice, Western blot; settings: 10 mg/kg NDI, 20 h; for lung ZBP1 protein (Figure 5B): individual mice, 10 mg/kg
Method: Sepsis was induced in mice by cecal ligation and puncture (CLP) as described previously ([45], [46]). Mice were anesthetized with isoflurane to a surgical plane and placed in a supine position. CLP was performed through a midline laparotomy. The abdomen was shaved and disinfected. Through a 2 cm midline incision, the cecum was exposed and then ligated with a 4-0 silk suture 1 cm proximal from the distal cecal extremity. For 20-hour CLP experiments, the cecum was punctured twice with a 22-gauge needle. A small amount of cecal content was extruded through both holes, and the ligated cecum was returned to the peritoneal cavity. The wound was closed in layers. For 10-day sepsis survival studies, the cecum was punctured once with a 22-gauge needle. A small amount of cecal content was extruded. Mice were allocated to the vehicle and adoptive transfer of DLL4^+ neutrophils or DLL4^– neutrophils groups. Adoptive transfer mice received a retro-orbital injection of 1 × 10^6 cells per mouse DLL4^+ neutrophils or DLL4^– neutrophils in […] phosphate-buffered saline (PBS) immediately after abdominal closure in both the 20-hour experiments and the survival study. Vehicle groups received an equivalent volume of PBS, while treatment groups received NDI 10 mg/kg in […] PBS via retro-orbital injection after CLP. This dose was chosen primarily on the basis of our laboratory’s prior experience, we have consistently used this dose in mouse CLP models with reproducible efficacy and without observable toxicity ([39], [44]). Sham-operated animals underwent a laparotomy without CLP. After closure, the mice received a subcutaneous injection of 0.5 mL of normal saline to overcome surgery-induced dehydration. […]
PVECs and lung tissue were collected in previous steps. Whole-cell proteins were extracted, and the protein concentration was measured using an ABC protein assay kit (catalog 5000002, Bio-Rad). […] Bands were detected using an Odyssey FC Dual-Mode Imaging system 2800 (LI-COR).

TNF-α = test: Serum TNF-α, CLP mice, ELISA; settings: DLL4^+ neutrophil-injected CLP mice, 10 mg/kg, 20 h
Method: Sepsis was induced in mice by cecal ligation and puncture (CLP) as described previously ([45], [46]). Mice were anesthetized with isoflurane to a surgical plane and placed in a supine position. CLP was performed through a midline laparotomy. The abdomen was shaved and disinfected. Through a 2 cm midline incision, the cecum was exposed and then ligated with a 4-0 silk suture 1 cm proximal from the distal cecal extremity. For 20-hour CLP experiments, the cecum was punctured twice with a 22-gauge needle. A small amount of cecal content was extruded through both holes, and the ligated cecum was returned to the peritoneal cavity. The wound was closed in layers. For 10-day sepsis survival studies, the cecum was punctured once with a 22-gauge needle. A small amount of cecal content was extruded. Mice were allocated to the vehicle and adoptive transfer of DLL4^+ neutrophils or DLL4^– neutrophils groups. […]
Blood was collected by heart puncture and centrifuged at 1,500g and 4°C for 10 minutes, and the plasma was separated to assess cytokine levels using enzyme-linked immunosorbent assay (ELISA) kits (BD Biosciences). The plasma TNF-α (catalog 558534) and IL-6 (catalog 555240) levels were measured by ELISA.

ECAGSPCHNGGTCEDGI [NDI]
effect on lung water content (C57BL/6 mice, CLP sepsis; DLL4^+ neutrophil-injected CLP mice, 10 mg/kg): significantly attenuated these effects, reducing both lung water content and Evans blue dye content | lung water content (wet weight – dry weight)/wet weight (Figure 6K) (C57BL/6 mice, CLP sepsis; DLL4^+ neutrophils + CLP): 71.922% and 71.5282% and 71.1472% and 70.6857% and 70.3749% and 72.6514% and 72.546% and 71.2677% and 69.0684% and 72.1189% and 71.6599% and 71.2762% | lung water content (wet weight – dry weight)/wet weight (Figure 6K) (C57BL/6 mice, CLP sepsis; DLL4^– neutrophils + CLP): 69.6732% and 70.471% and 69.6655% and 68.9338% and 68.9855% and 70.575% and 70.9924% and 68.7155% and 69.153% | lung ZBP1 protein (Figure 5B) (ZBP1; DLL4^+ neutrophils + CLP): 0.846 and 0.9823 and 0.8189 and 0.8666 and 0.6492 and 0.9798 and 0.8814 | effect on lung ZBP1 protein (ZBP1; DLL4^+ neutrophils/sepsis): effectively decreased ZBP1 expression | lung ZBP1 protein (Figure 5B) (ZBP1; DLL4^– neutrophils + CLP): 1.332 and 0.9583 and 0.9668 | effect on serum TNF-α (TNF-α): significantly reduced the serum levels of hepatic and cell injury markers and proinflammatory cytokines

— paper PMC12700550, “DLL4^+ neutrophils promote Notch1-mediated endothelial PANoptosis to exacerbate acute lung injury in sepsis” (The Journal of Clinical Investigation, 2025)
